Results on 1 molecule are retold here after article PMC8880385 (Pharmaceuticals, 2022).

For data set [1], the system named is O. volvulus pre-adult L5. Put plainly: O. volvulus pre-adult (Ov L5) motility assay. In kind it is cell-based, Onchocerca volvulus. Conditions: Onchocerca volvulus, Day 36 @ 1 µM; 14 days drug then washout. The procedure: O. volvulus adult male and female worms, which can only be obtained from infected individuals, are not readily accessible for ex vivo studies. Moreover, since there is no small animal model that can maintain infections by O. volvulus, a recently developed in vitro system was used to evaluate the macrofilaricidal effects on pre-adult worms. All compounds except for 04 were tested in this O. volvulus pre-adult/L5 motility and viability assay.
(§1) Briefly, Ov L3 larvae were cultured to the pre-adult/L5 stage in vitro as described by Voronin et al., 2019 [45]. Once larvae reached the L5 stage (after at least 70 days in culture), 8–10 Ov L5 were moved to new transwell inserts in a 24-well plate containing 0.5 mL Ov L4-CMS media seeded with a 3 × 10^4/well Human Umbilical Vein Endothelial Cells (HUVEC) monolayer. Duplicate wells were treated with 1 and/or 10 µM of compound. Ov L5 were exposed to compounds for 14 days (exchanged 50% of media with fresh compound every two days) and then cultured with new media without compound, exchanging 50% of media every 2–3 days, up to day 36. Control Ov L5 were treated with 0.05% DMSO. Concentrations were chosen based on activity in the B. pahangi female motility assay. Motility was assessed visually and ranked on a 0–100% scale every 2–3 days over the course of the assay. At the end of the motility assay, Ov L5 viability was measured by 3-(4,5-dimethylthiazol-2-yl)-2,5-diphenyltetrazolium bromide (MTT) assay. Ov L5 were incubated with 0.1% MTT in PBS at 37 °C for 1 h then visually inspected for blue coloration indicating MTT reduction. Worms were considered dead if <50% of the worm was stained blue, and worms were considered alive if >50% of the worm was stained blue.

Data set [2] has as its system O. volvulus pre-adult L5. Kind of data set: Ov L5 viability by endpoint MTT assay. Particulars: 1 µM. In kind it is cell-based, Onchocerca volvulus. The method, then:
as §1, with “Concentrations were chosen based on activity in the B. pahangi female motility assay.” left out

The subject of a further data set is O. ochengi adult males. Kind of data set: O. ochengi adult male motility assay. Format: cell-based. Particulars: Onchocerca ochengi, 120 h; read-out: O. ochengi Adult Males Inhibition of Motility Day 5 IC50. The text has this: As humans are the only hosts for O. volvulus which are unavailable for screening, drug discovery relies on the surrogate filarial parasites Brugia spp. and cattle Onchocerca spp. Prioritized compounds from the Brugia worm screens were further tested with female and male adult O. ochengi as well as O. ochengi and L. loa mf.
For these assays, O. ochengi adults were extracted from the subcutaneous nodules of infected cow skins purchased from the local slaughterhouse (Douala, Littoral Region, Cameroon) and incubated in 4 mL complete culture media comprised of RPMI-1640 (Sigma-Aldrich), 5% newborn calf serum, 200 units/mL penicillin, 200 μg/mL streptomycin and 2.5 μg/mL amphotericin B (Sigma-Aldrich) in 12-well plates overnight to validate sterility prior to the assays. Four to eight O. ochengi adult masses were treated individually the following day with a serial dilution of each compound, and controls were treated with 1% DMSO. While in culture, the male worms normally egress from the nodules into the surrounding media and thus can be monitored in parallel for motility. The O. ochengi adult masses were incubated at 37 °C with 5% CO2 for the duration of the assay. Male motility within each well was visually scored every day and over 5 days after compound addition, and female viability within the nodules was assessed by MTT after 7 days as previously described. The O. ochengi adult masses containing female worms were individually placed in wells of a 48-well plate with 0.5 mL of 0.5 mg/mL MTT in PBS and incubated at 37 °C for 30 min. Female viability was visually rated by the degree of formazan production (live worms have blue coloration) in the female worm within the treated nodule versus control worm masses. […] Prism 4.0 for Windows was used to calculate IC50s.

The test system of a further data set is O. ochengi mf. Kind of data set: O. ochengi microfilariae motility assay. Format: cell-based, Onchocerca ochengi. Conditions: Onchocerca ochengi, 120 h; 10 µM, Day 5. The procedure: To assess the effects of the compounds on O. ochengi mf, the mf were harvested from infected cow skin and cultured (10–15 mf per well) in 100 µL media in 96-well plates with a confluent feeder layer of monkey kidney epithelial cells (MK2) as previously described. […] All compounds were also counter-screened with L. loa mf collected from infected individuals with approval from the University of Buea (IRB approval # 964-19). Mf were separated from blood cells using a Percoll gradient as previously described and set up for assays (10–15 mf per well).

The nature of another data set: in vitro. Particulars: dog, MDCK-MDR1. The procedure:
Permeability assays were conducted using 5 µM of each test compound with digoxin as a control. […] electrical resistance was used to verify the integrity of the MDCK-MDR1 monolayer. After compound addition, plates were incubated at 37 °C with 5% CO2 for 1 h. Samples were analyzed by LC–MS/MS and net flux ratio was calculated using basal-to-apical and apical-to-basal permeability.

For data set [3], the system named is Brugia pahangi adult females. Put plainly: Transmission electron microscopy of B. pahangi adult females from treated gerbils. Conditions: females from gerbils treated with 1 mg/kg. Format: in vivo. The procedure: B. pahangi adult females recovered from gerbils treated with 1 mg/kg THP and analog 06 were prepared as above except worms were cut into approximately 5 mm long pieces taken from the center of the worm. Pieces were washed for one hour in 0.1 M sodium cacodylate followed by post-fixation in 1% osmium tetroxide for 1 h and again washed in the same buffer for another hour. Sample pieces were dehydrated using an increasing concentration of ethanol and resin (Durcupan, by Fluka) and transitioned using propylene oxide. Samples were left overnight in pure resin at 4 °C. Samples pieces were embedded using Beem capsules (Electron Microscopy Sciences) and cured at 60 °C overnight. All reagents were purchased from Electron Microscopy Sciences.
Blocks were trimmed and sectioned using a diamond knife on a Sorvall MT-6000 ultramicrotome, collected on formvar coated 1 mm slot grids and contrasted using uranyl acetate and lead citrate. Grids were imaged on a Philips CM100 transmission electron microscope at 80 kV and images were collected using a Gatan Orius imaging system.

In general, inhibition refers to the change of the read-out against control, counted positive when it falls. Read a low inhibition as a weak effect. What is called IC50 is the midpoint of a concentration-inhibition curve. A word on the Papp A→B: it is how fast a substance crosses the layer from the apical side. Lower therefore signals slow passage. In general, Papp B→A refers to the apparent permeability from the basolateral to the apical side of a cell layer. In the case of `Cc1ccc2c(ccc(/C=C/c3c(C)nn(-c4ccccc4)c3C)[n+]2C)c1.[I-]` [Analog 06, 2-[(E)-2-(3,5-dimethyl-1-phenyl-1H-pyrazol-4-yl)ethenyl]-1,6-dimethylquinolin-1-ium iodide], the inhibition at 1 µM with O. volvulus pre-adult L5 [1] was more than 90%. Further, the “O. volvulus L5 % inhibition of viability Day 37 (MTT assay)” value in the data set on O. volvulus pre-adult L5 [2] was 88%. Further, the IC50 in the data set on O. ochengi adult males amounted to 2750 nM. In addition, testing at 10 µM in the data set on O. ochengi mf gave an inhibition of 46%. Also, in the data set “in vitro”, the apparent permeability from apical to basolateral (Papp A→B) was 0.5 ×10⁻⁶ cm/s and the Papp B→A was found to be 12.1 ×10⁻⁶ cm/s. Moreover, the “Ultrastructure of gonads / developing microfilariae of female worms (TEM)” value in data set [3] (1 mg/kg) is given as “more severe effect on the gonads”. Besides, the “Ultrastructure of gonads / developing microfilariae of female worms (TEM)” value in data set [3] (listed as 06, 1 mg/kg) is on record as “abnormal ultrastructural phenotypes”.
